# From US20080132555A1, “PREPARATION AND UTILITY OF SUBSTITUTED PHENYLTETRAZOLES” (AUSPEX PHARMACEUTICALS, INC., priority 2006, published 2008)
# Settings: cited from earlier work
row,Compound,lowering of the rate of new-onset Diabetes Mellitus relative to the β-blocker atenolol
1,"CCCCc1nc(Cl)c(CO)n1Cc1ccc(-c2ccccc2-c2nn[nH]n2)cc1 [losartan, Losartan]",25%

# Settings: 5 microgram per mL
# Protocol: Liver microsomal stability assays were conducted at 1 mg per mL liver microsome protein with an NADPH-generating system in 2% NaHCO3 (2.2 mM NADPH, 25.6 mM glucose 6-phosphate, 6 units per mL glucose 6-phosphate dehydrogenase and 3.3 mM MgCl2). Test compounds were prepared as solutions in 20% acetonitrile-water and added to the assay mixture (final assay concentration 5 microgram per mL) and incubated at 37° C. Final concentration of acetonitrile in the assay were <1%. Aliquots (50 μL) were taken out at times 0, 15, 30, 45, and 60 minutes, and diluted with ice cold acetonitrile (200 μL) to stop the reactions. Samples were centrifuged at 12000 RPM for 10 minutes to precipitate proteins. Supernatants were transferred to microcentrifuge tubes and stored for LC/MS/MS analysis of the degradation half-life of the test compounds.
row,increase in the degradation half-life as compared to the non-isotopically enriched drug (losartan),Compound
1,30-180%,"[2H]C(c1nc(Cl)c(C([2H])([2H])O)n1Cc1ccc(-c2ccccc2-c2nn[nH]n2)cc1)C([2H])([2H])C([2H])([2H])C([2H])([2H])[2H] (stereo not shown) [Example 4, d10-{2-Butyl-5-chloro-3-[2′-(2H-tetrazol-5-yl)-biphenyl-4-ylmethyl]-3H-imidazol-4-yl}-methanol]"
2,30-180%,"[2H]C(O)c1c(Cl)nc(C([2H])([2H])CCC)n1Cc1ccc(-c2ccccc2-c2nn[nH]n2)cc1 (stereo not shown) [Example 5, d3-{2-Butyl-5-chloro-3-[2′-(2H-tetrazol-5-yl)-biphenyl-4-ylmethyl]-3H-imidazol-4-yl}-methanol]"
3,30-180%,"[2H]C(O)c1c(Cl)nc(C([2H])C([2H])([2H])C([2H])([2H])C([2H])([2H])[2H])n1Cc1ccc(-c2ccccc2-c2nn[nH]n2)cc1 (stereo not shown) [Example 3, d9-{2-Butyl-5-chloro-3-[2′-(2H-tetrazol-5-yl)-biphenyl-4-ylmethyl]-3H-imidazol-4-yl}-methanol]"
4,30-180%,"[2H]C([2H])(O)c1c(Cl)nc(C([2H])([2H])CCC)n1Cc1ccc(-c2ccccc2-c2nn[nH]n2)cc1 [Example 6, d4-{2-Butyl-5-chloro-3-[2′-(2H-tetrazol-5-yl)-biphenyl-4-ylmethyl]-3H-imidazol-4-yl}-methanol]"
5,30-180%,"[2H]C(c1nc(Cl)c(CO)n1Cc1ccc(-c2ccccc2-c2nn[nH]n2)cc1)C([2H])([2H])C([2H])([2H])C([2H])([2H])[2H] (stereo not shown) [Example 2, d8-{2-Butyl-5-chloro-3-[2′-(2H-tetrazol-5-yl)-biphenyl-4-ylmethyl]-3H-imidazol-4-yl}-methanol]"
6,30-180%,"[2H]C([2H])(O)c1c(Cl)nc(CCCC)n1Cc1ccc(-c2ccccc2-c2nn[nH]n2)cc1 [Example 1, d2-{2-Butyl-5-chloro-3-[2′-(2H-tetrazol-5-yl)-biphenyl-4-ylmethyl]-3H-imidazol-4-yl}-methanol]"
